Several values for one entry are separate records, joined by “and”; a condition that tells them apart may be missing. Equal values may be shown once.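 96-well plates; 48 h exposure; 5 concentrations. Endpoints by linear interpolation between flanking doses. Not reached: highest tested concentration assigned. GI50 is the concentration that inhibits growth by half. TGI: total growth inhibition.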
Columns and labels:
Assay in all cases: NCI tumour cell line growth inhibition, 48 h
HOP-62 NSCLC = tested on: HOP-62 NSCLC
OVCAR-3 ovarian = tested on: OVCAR-3 ovarian
NCI-H23 lung = tested on: NCI-H23 lung
NCI-H460 lung = tested on: NCI-H460 lung
OVCAR-8 ovarian = tested on: OVCAR-8 ovarian
EKVX NSCLC = tested on: EKVX NSCLC
RPMI-8226 leukemia = tested on: RPMI-8226 leukemia
M14 melanoma = tested on: M14 melanoma
SW-620 colon = tested on: SW-620 colon
UACC-62 melanoma = tested on: UACC-62 melanoma
MALME-3M melanoma = tested on: MALME-3M melanoma
786-0 renal = tested on: 786-0 renal

| SMILES | TGI (HOP-62 NSCLC) | TGI (OVCAR-3 ovarian) | TGI (NCI-H23 lung) | TGI (NCI-H460 lung) | TGI (OVCAR-8 ovarian) | TGI (EKVX NSCLC) | TGI (RPMI-8226 leukemia) | TGI (M14 melanoma) | TGI (SW-620 colon) | TGI (UACC-62 melanoma) | TGI (MALME-3M melanoma) | TGI (786-0 renal) | GI50 (OVCAR-3 ovarian) | GI50 (NCI-H23 lung) | GI50 (M14 melanoma) | GI50 (SW-620 colon) | GI50 (UACC-62 melanoma) |
| --- | --- | --- | --- | --- | --- | --- | --- | --- | --- | --- | --- | --- | --- | --- | --- | --- | --- |
| Cc1cc(S(=O)(=O)N=C2N(Cc3ccccc3)CCN2Cc2ccccc2)c(S)cc1Cl | > 100 µM | > 100 µM | > 100 µM | > 100 µM | > 100 µM | > 100 µM | > 100 µM | > 100 µM | > 100 µM | > 100 µM | > 100 µM | > 100 µM | – | – | – | – | – |
| O=c1cc(-c2ccc(F)cc2)[nH]c2ncc(Cl)cc12 | > 93.2 µM | > 70.5 µM | > 100 µM | > 100 µM | > 100 µM | > 100 µM | 62.4 µM | > 100 µM | > 100 µM | > 100 µM | > 100 µM | > 100 µM | – | – | – | – | – |
| O=C(O)Cc1cccc2c(=O)c3ccccc3oc12 | > 100 µM | > 100 µM | > 100 µM | > 100 µM | > 100 µM | > 100 µM | > 100 µM | > 100 µM | > 100 µM | 77.2 µM | > 100 µM | > 100 µM | – | – | – | – | – |
| CCCCN1C(=O)N(c2ccc(OCC)cc2)C2N(CCCC)C1C(C)(C)C2(C)C (configuration not stated) | > 100 µM | 54 µM | > 100 µM | > 100 µM | > 100 µM | 50.6 µM | 42 µM | > 100 µM | > 100 µM | 50 µM | 73.1 µM | > 100 µM | – | – | – | – | – |
| COc1ccc2ccccc2c1/C=C/C(=O)c1ccccc1 | 9 µM | 7.23 µM | 9.69 µM | 3.76 µM | 11.2 µM | 12.1 µM | 4.07 µM | 9.62 µM | 6.53 µM | 9.35 µM | 26.3 µM | 11.9 µM | – | – | – | – | – |
| CCOC(=O)C(=Cc1[nH]c2ccccc2c1-c1c[nH]c2ccccc12)C(=O)OCC | 28.1 µM | 21.2 µM | 35.4 µM | 29.8 µM | 25.8 µM | 31.8 µM | 23.8 µM | 21.7 µM | – | 19.4 µM | 34.4 µM | 7.15 µM | – | – | – | – | – |
| CC1=NNC(N)=N/C1=C\C(Sc1ccc(Cl)cc1)c1ccc([N+](=O)[O-])cc1 (configuration not stated) | > 100 µM | – | > 100 µM | > 100 µM | > 100 µM | > 100 µM | > 100 µM | > 100 µM | > 100 µM | > 100 µM | > 100 µM | > 100 µM | – | – | – | – | – |
| COc1cc(/C=C2/C[C@H]3[C@@H]4CC=C5C[C@@H](O)CC[C@]5(C)[C@H]4CC[C@]3(C)NC2=O)cc(OC)c1OC | > 89.1 µM | > 100 µM | > 62.7 µM | 25.9 µM | > 70.8 µM | > 92.8 µM | > 44.4 µM | > 100 µM | > 100 µM | 75.4 µM | 32.8 µM | 57.1 µM | – | – | – | – | – |
| CC(C)[Si](OC1=C(C(=O)N(C)c2cccc(Cl)c2)CCCC1)(C(C)C)C(C)C | 32.4 µM | 27.6 µM | 25.3 µM | 32.8 µM | 31 µM | 30.1 µM | 42.4 µM | 29.3 µM | 29.2 µM | 30.8 µM | 24.9 µM | 34.2 µM | – | – | – | – | – |
| CCOP(C)(=O)C(N)Cc1ccc(OC)c(OC)c1 (configuration not stated) | > 100 µM | > 100 µM | > 100 µM | > 100 µM | > 100 µM | > 100 µM | > 100 µM | > 100 µM | > 100 µM | > 100 µM | > 100 µM | > 100 µM | – | – | – | – | – |
| CSc1ccc2c(cc1=O)[C@@H](NC(=O)c1ccc(N)cc1)CCc1cc(O)c(O)c(O)c1-2 | 27.8 µM and 34.7 µM | 40.8 µM and 19.5 µM | 50.9 µM and 69.7 µM | 29.6 µM and 49.7 µM | > 75 µM and 59.1 µM | > 100 µM | > 75 µM and 94.2 µM | 27.9 µM and 36.5 µM | > 100 µM | > 100 µM | > 100 µM | 27.6 µM and 41.1 µM | 17.5 µM and 4.17 µM | 22.3 µM and 10.4 µM | 13.5 µM and 5.66 µM | 18.7 µM and 8.21 µM | 21.5 µM and 7.58 µM |
| CON(C)C(=O)CNC(=O)OCC1c2ccccc2-c2ccccc21 | > 100 µM | > 100 µM | > 100 µM | > 100 µM | > 100 µM | > 100 µM | 91.7 µM | > 100 µM | > 100 µM | > 100 µM | > 100 µM | > 100 µM | – | – | – | – | – |
| Oc1ccc(-c2nc(-c3cccnc3)c(-c3ccc(Cl)cc3)[nH]2)cc1 | 30.9 µM | 28 µM | 25.9 µM | 24 µM | 28.4 µM | 27.4 µM | 30 µM | 26.1 µM | 29.9 µM | 25.9 µM | 26.8 µM | 28.8 µM | – | – | – | – | – |
| COC1=C(OC)C(=O)C(Cc2c(C)nc3sc(C)cn23)=C(C)C1=O | 35.7 µM | 35.6 µM | 37.2 µM | 54.3 µM | 32.8 µM | 35.1 µM | 39.2 µM | 32.8 µM | 51.6 µM | 27.4 µM | 37.3 µM | 39.4 µM | – | – | – | – | – |
| COc1cc(CNCc2cc(OC)c(OC)c(OC)c2)cc(OC)c1OC | > 10 µM | > 10 µM | > 10 µM | > 10 µM | > 10 µM | > 10 µM | > 10 µM | > 10 µM | > 10 µM | > 10 µM | > 10 µM | > 10 µM | – | – | – | – | – |
| Cc1ccc(/C=C2\CCCc3ccccc3C2=O)cc1 | 60.6 µM | 50.8 µM | 89.1 µM | 32.5 µM | > 100 µM | 60.9 µM | 75 µM | 20.4 µM | 65.9 µM | 29.2 µM | 34.5 µM | > 100 µM | – | – | – | – | – |
| COc1cc(C(=O)N(Cc2cccnc2)C(=S)N(Cc2cccnc2)C(=O)c2cc(OC)c(OC)c(OC)c2)cc(OC)c1OC | > 100 µM | > 100 µM | > 100 µM | > 100 µM | > 100 µM | > 100 µM | > 100 µM | > 100 µM | > 100 µM | 73.9 µM | > 100 µM | > 100 µM | – | – | – | – | – |
| O=Cc1ccc(OCc2cccc(COc3ccc(/C=N\Nc4ccc([N+](=O)[O-])cc4[N+](=O)[O-])cc3)n2)cc1 | > 100 µM | > 100 µM | > 100 µM | > 100 µM | > 100 µM | > 100 µM | > 100 µM | > 100 µM | > 100 µM | > 100 µM | > 100 µM | > 100 µM | – | – | – | – | – |
| CC(C)(C)OC(=O)NC(Cc1ccc(OCc2ccccc2)cn1)C(=O)N1CCCCC1 (configuration not stated) | > 100 µM | > 100 µM | > 100 µM | > 100 µM | > 100 µM | > 100 µM | 52.7 µM | > 100 µM | > 100 µM | > 100 µM | > 100 µM | > 100 µM | – | – | – | – | – |
| O=C1C(CN2CCCCC2)CCC1CN1CCCCC1 (configuration not stated) | > 100 µM | 26.5 µM | 53.7 µM | > 100 µM | > 68.9 µM | > 100 µM | 28.4 µM | 32 µM | 16 µM | 32.3 µM | 49 µM | 41.7 µM | – | – | – | – | – |
| CCN(CC)C(=S)N/N=C(/C)c1cccc(/C(C)=N\NC(=S)N(CC)CC)n1 | 6.76 µM | 7.44 µM | 19.2 µM | 6.36 µM | 3.19 µM | 12.5 µM | 6.17 µM | 3.63 µM | 15.2 µM | 8.15 µM | 7.41 µM | 11.5 µM | – | – | – | – | – |
| CC12C(=O)CC(CC1=O)C2(C)C | > 100 µM | > 100 µM | – | > 100 µM | > 100 µM | > 100 µM | > 100 µM | > 100 µM | > 100 µM | > 100 µM | > 100 µM | > 100 µM | – | – | – | – | – |
| NC(N)=N/N=C/c1c[nH]c2ccccc12 | > 100 µM | > 100 µM | > 100 µM | > 100 µM | > 100 µM | > 100 µM | > 100 µM | > 100 µM | > 100 µM | > 100 µM | > 100 µM | > 100 µM | – | – | – | – | – |
| COc1ccc(C(=C(Cl)c2ccccc2)c2ccc(OC)cc2)cc1 | > 100 µM | > 100 µM | > 100 µM | > 100 µM | > 100 µM | > 100 µM | > 100 µM | > 100 µM | > 100 µM | > 100 µM | > 100 µM | > 100 µM | – | – | – | – | – |
| COCN(CCC1=CCCCC1)C(=O)OC | > 100 µM | > 100 µM | > 100 µM | > 100 µM | > 100 µM | > 100 µM | > 100 µM | > 100 µM | > 100 µM | > 100 µM | > 100 µM | > 100 µM | – | – | – | – | – |
| O=C(N/N=C/c1ccccc1)c1c(-c2cccnc2)cnc2ccccc12 | > 100 µM | > 100 µM | > 100 µM | > 100 µM | > 100 µM | > 100 µM | > 100 µM | > 100 µM | > 100 µM | > 100 µM | > 100 µM | > 100 µM | – | – | – | – | – |
| Cn1cc(NC(=O)c2cc(NC(=O)CN=C(N)N)cn2C)cc1C(=O)NCCC(=N)N | > 100 µM | > 100 µM | > 100 µM | > 100 µM | > 100 µM | > 100 µM | > 100 µM | > 100 µM | > 100 µM | > 100 µM | > 100 µM | > 100 µM | – | – | – | – | – |
| CC1(C)NC2C(=O)c3c([nH]c4ccccc34)[C@]3(C)CCC1CC23 (some centres not stated) | > 100 µM | > 100 µM | > 100 µM | > 100 µM | > 100 µM | > 100 µM | > 100 µM | – | > 100 µM | > 100 µM | > 100 µM | > 100 µM | – | – | – | – | – |

— PubChem BioAssay (NCI)
